The source of these data is article PMC3466212, “Novel AChE Inhibitors for Sustainable Insecticide Resistance Management” (PLoS ONE, 2012).

One data set addresses T1, G119S AChE1 (Culex pipiens, UniProt Q86GC8, G247S).
T1 construct: made in house; host or cells: Drosophila S2 cells
The experiment in a line: biochemical. In kind it is biochemical. On the procedure:
Production of C. pipiens WT and mutated AChE1s in Drosophila S2 cells was already described. The chemical library (ChemBridge, 3,000 compounds) screening was performed in duplicate on G119S recombinant AChE1. Chemicals were made soluble in ethanol or dimethylsulphoxide (DMSO), and then diluted at 300 µM in ethanol for storage. […] PTF analogs were analyzed in dose-response experiments (10-fold serial dilutions from 3 mM to 30 nM), using recombinant WT and G119S AChE1 or mosquito head extracts (heads cut from frozen mosquitoes, homogenized in 400 µl PB containing 1% Triton X-100 and cleared by centrifugation at 9,000×g for 3 min). Depending on compound availability, two to five replicates were performed with distinct batches of enzyme. […] IC50 was estimated by nonlinear least square regression. IC50 was also measured on AChE1 from susceptible and resistant mosquito larvae extracts.

Data set [1] relates to C. pipiens Slab strain larvae. The experiment in a line: Larval bioassay, Slab strain (OP-susceptible). The conditions noted are these: for Mortality at 300 µM, Slab: fourth-instar larvae, 24 hours exposure. The text has this:
Three C. pipiens strains were used: the susceptible reference Slab strain, homozygous for ace-1 ^S [39], the resistant reference SR strain, carrying the genetical background of Slab but homozygous for the G119S mutation, allele ace-1 ^R [21] and the Ducos strain, carrying the genetical background of Slab but homozygous for an ace-1 duplication, with one ace-1^S and ace-1^R copy in tandem. Culex pipiens heterozygous larvae (Slab×SR) were obtained by crossing Slab males and SR females. Two A. gambiae reference strains (S molecular form) were used: the susceptible strain Kisumu, homozygous for ace-1 ^S, collected in Kenya in 1953 and maintained since then under laboratory conditions and the resistant Acerkis strain, carrying the genetical background of Kisumu but homozygous for an ace-1^R allele from a population collected in Bobo-Dioulasso, Burkina Faso [41].
Insecticidal activity was determined by performing bioassays on fourth-instar larvae as described in [42]. Each compound was dissolved in ethanol. Propoxur (CX) and chlorpyrifos (OP) were used as references. For each compound, we first tested mortality after a 24-hour exposure at 300 µM. […] Mortality data were analyzed by the log-probit program. This program takes into account natural mortality and provides lethal doses (LD) and slopes for each mortality line; it also computes resistance ratios (RR) for each LD, with 95% confidence intervals.

Data set [2] deals with C. pipiens SR strain larvae. The experiment in a line: Larval bioassay, SR strain (OP-resistant). The conditions noted are these: for Mortality at 300 µM, SR: fourth-instar larvae, 24 hours exposure. An excerpt:
Three C. pipiens strains were used: the susceptible reference Slab strain, homozygous for ace-1 ^S [39], the resistant reference SR strain, carrying the genetical background of Slab but homozygous for the G119S mutation, allele ace-1 ^R [21] and the Ducos strain, carrying the genetical background of Slab but homozygous for an ace-1 duplication, with one ace-1^S and ace-1^R copy in tandem. Culex pipiens heterozygous larvae (Slab×SR) were obtained by crossing Slab males and SR females.
Insecticidal activity was determined by performing bioassays on fourth-instar larvae as described in [42]. Each compound was dissolved in ethanol. Propoxur (CX) and chlorpyrifos (OP) were used as references. For each compound, we first tested mortality after a 24-hour exposure at 300 µM. […] Mortality data were analyzed by the log-probit program.

The target of another data set is WT AChE1 (Culex pipiens, UniProt Q86GC8). Description: AChE assay (Ellman), dose-response on recombinant WT AChE1. The format is biochemical. Further details: made in house; host or cells: Drosophila S2 cells. How it is done: Production of C. pipiens WT and mutated AChE1s in Drosophila S2 cells was already described. The chemical library (ChemBridge, 3,000 compounds) screening was performed in duplicate on G119S recombinant AChE1. Chemicals were made soluble in ethanol or dimethylsulphoxide (DMSO), and then diluted at 300 µM in ethanol for storage. Compounds (30 µM final concentration) were incubated for 15 min at room temperature with 100 µl of G119S recombinant AChE1 then 100 µl of substrate (acetylthiocholine, 1.6 mM, Sigma-Aldrich) was added and the residual activity was quantified by measuring the optical density at 412 nm, as described by Ellman et al.. PTF analogs were analyzed in dose-response experiments (10-fold serial dilutions from 3 mM to 30 nM), using recombinant WT and G119S AChE1 or mosquito head extracts (heads cut from frozen mosquitoes, homogenized in 400 µl PB containing 1% Triton X-100 and cleared by centrifugation at 9,000×g for 3 min). Depending on compound availability, two to five replicates were performed with distinct batches of enzyme. […] IC50 was estimated by nonlinear least square regression. IC50 was also measured on AChE1 from susceptible and resistant mosquito larvae extracts.

The mark [3] stands for this setting: recombinant OP-insensitive G119S C. pipiens AChE1, 15 min incubation, acetylthiocholine, read-out: IC50 G119S.
[4] abbreviates: recombinant wild-type C. pipiens AChE1, 15 min incubation, acetylthiocholine, read-out: IC50 WT.

Where two headings read alike, the source gives them in different places.

Turning to `CN1C(=O)C(=Cc2ccc(-c3ccc(S(N)(=O)=O)cc3)o2)C(=O)N(C)C1=O` [PTF-46], the IC50 at G119S AChE1 (setting [3]) came out at 5.2 µM; on WT AChE1 (setting [4]), 1.7 µM. In data set [1], the “Mortality at 300 µM, Slab” value is reported as 0%. The “Mortality at 300 µM, SR” value in data set [2] was 0%.
In the case of `O=C1NC(=O)N(c2ccccc2)C(=O)C1=Cc1ccc(Sc2ccccc2)o1` [PTF-60], the IC50 came to 1.1 µM on G119S AChE1 (setting [3]) and 7.7 µM at WT AChE1 (setting [4]). In data set [1], the “Mortality at 300 µM, Slab” value was 50%. The “Mortality at 300 µM, SR” value in data set [2] is recorded as 50%.
As to `Cc1ccc(N2C(=O)NC(=O)C(=Cc3ccc(C)o3)C2=O)cc1` [PTF-4], the IC50 on G119S AChE1 (setting [3]) worked out at 14 µM; on WT AChE1 (setting [4]), 111 µM. The “Mortality at 300 µM, Slab” value in data set [1] is on record as 78%. In addition, the “Mortality at 300 µM, SR” value in data set [2] was determined as 100%.
For `Cc1ccc(C=C2C(=O)NC(=O)N(Cc3ccco3)C2=O)o1` [PTF-16], the IC50 at G119S AChE1 (setting [3]) came to 37 µM; on WT AChE1 (setting [4]), 260 µM. Further, the “Mortality at 300 µM, Slab” value in data set [1] came out at 80%. Besides, the “Mortality at 300 µM, SR” value in data set [2] is reported as 100%.
The corresponding values for `CCOC(=O)c1ccc(-c2ccc(C=C3C(=O)NC(=O)N(c4ccccc4)C3=O)o2)cc1` [PTF-56] are 1.9 µM, 4.9 µM, 0% and 0%.
Taken in the same sequence, the figures for `CN1C(=O)C(=Cc2ccco2)C(=O)N(C)C1=O` [PTF-38] were 357 µM, 1190 µM, 70% and 90%.
For the compound `Cc1ccc(C=C2C(=O)NC(=O)N(c3ccc(C(=O)O)cc3)C2=O)o1` [PTF-15], the IC50 at G119S AChE1 (setting [3]) was found to be 12.9 µM; at WT AChE1 (setting [4]), 9 µM. For the same compound, in data set [1], the “Mortality at 300 µM, Slab” value is on record as 0%. Besides, the “Mortality at 300 µM, SR” value in data set [2] turned out to be 0%.
Take `O=C1NC(=O)N(c2ccccc2)C(=O)C1=Cc1cccs1` [PTF-67]: the values for the IC50 at G119S AChE1 (setting [3]) and at WT AChE1 (setting [4]) were 11.2 µM and 9.1 µM, respectively. In addition, in data set [1], the “Mortality at 300 µM, Slab” value is listed as 0%. Also, the “Mortality at 300 µM, SR” value in data set [2] amounted to 0%.
With `CN1CCN(c2ccc(C=C3C(=O)N(C)C(=O)N(C)C3=O)o2)CC1` [PTF-52], the IC50 on G119S AChE1 (setting [3]) turned out to be 52 µM; on WT AChE1 (setting [4]) it was 860 µM. Also, in data set [1], the “Mortality at 300 µM, Slab” value worked out at 0%. Besides, the “Mortality at 300 µM, SR” value in data set [2] amounted to 0%.
`Cc1ccc(C=C2C(=O)NC(=S)N(c3ccc(C(=O)O)cc3)C2=O)o1` [PTF-31]: the IC50 on G119S AChE1 (setting [3]) is 0.2 µM; on WT AChE1 (setting [4]), 0.5 µM. The “Mortality at 300 µM, Slab” value in data set [1] was 20%. The “Mortality at 300 µM, SR” value in data set [2] was determined as 20%.
Turning to `CCc1ccc(N2C(=O)C(=Cc3ccc(C)o3)C(=O)NC2=S)cc1` [PTF-26], the IC50 at G119S AChE1 (setting [3]) came out at 16 µM; on WT AChE1 (setting [4]), 9 µM. In data set [1], the “Mortality at 300 µM, Slab” value is given as 100%. Besides, the “Mortality at 300 µM, SR” value in data set [2] amounted to 65%.
The corresponding values for `CCN(CC)c1ccc(C=C2C(=O)N(C)C(=O)N(C)C2=O)o1` [PTF-42] are 1040 µM, 720 µM, 0% and 0%.
Taken in the same sequence, the figures for `CCOc1ccc(N2C(=O)NC(=O)C(=Cc3ccc(C)o3)C2=O)cc1` [PTF-13] were 89 µM, 236 µM, 64% and 96%.
Taken in the same sequence, the figures for `CN1C(=O)C(=Cc2ccc(N3CCCC3)o2)C(=O)N(C)C1=O` [PTF-48] were 1520 µM, 755 µM, 0% and 0%.
As to `O=C1NC(=O)N(c2ccccc2)C(=O)C1=Cc1ccc(-c2cccc(C(=O)O)c2)o1` [PTF-58], the results for the IC50 on G119S AChE1 (setting [3]) and on WT AChE1 (setting [4]) were 9.3 µM and 6.7 µM, respectively. Besides, the “Mortality at 300 µM, Slab” value in data set [1] amounted to 0%. In data set [2], the “Mortality at 300 µM, SR” value is 0%.
Consider `Cc1ccc(C=C2C(=O)NC(=S)N(c3cccc(Cl)c3)C2=O)o1` [PTF-36], for which the IC50 amounted to 8 µM on G119S AChE1 (setting [3]) and 11.8 µM at WT AChE1 (setting [4]). Besides, the “Mortality at 300 µM, Slab” value in data set [1] is 30%. For the same compound, the “Mortality at 300 µM, SR” value in data set [2] is listed as 40%.
Taken in the same sequence, the figures for `COc1ccc(N2C(=O)C(=Cc3ccc(C)o3)C(=O)NC2=S)cc1` [PTF-27] were 5.9 µM, 1.7 µM, 12% and 15%.
The corresponding values for `O=C1NC(=O)N(c2ccccc2)C(=O)C1=Cc1ccc(N2CCCCC2)o1` [PTF-61] are 1500 µM, 124 µM, 0% and 0%.
The corresponding values for `CN1C(=O)C(=Cc2ccc(-c3ccccc3C(=O)O)o2)C(=O)N(C)C1=O` [PTF-43] are 8.3 µM, 6.7 µM, 0% and 0%.
Regarding `Cc1ccc(N2C(=O)C(=Cc3ccc(C)o3)C(=O)NC2=S)cc1` [PTF-24], the “inhibition in primary screen (hydrolysis of acetylthiocholine)” value at G119S AChE1 (30 µM final concentration, duplicate, G119S recombinant AChE1) was 80–87%. For the same compound, the results for the IC50 at G119S AChE1 (setting [3]) and at WT AChE1 (setting [4]) were 1.9 µM and 1.3 µM, respectively. In addition, the “Mortality at 300 µM, Slab” value in data set [1] turned out to be 0%. The “Mortality at 300 µM, SR” value in data set [2] is listed as 0%.
`Cc1ccc(C=C2C(=O)NC(=O)N(c3ccc(C)c(C)c3)C2=O)o1` [PTF-7]: the IC50 on G119S AChE1 (setting [3]) is 35 µM; at WT AChE1 (setting [4]), 424 µM. Moreover, the “Mortality at 300 µM, Slab” value in data set [1] came to 100%. In addition, the “Mortality at 300 µM, SR” value in data set [2] is listed as 100%.
With `COc1cccc(N2C(=O)NC(=O)C(=Cc3ccc(C)o3)C2=O)c1` [PTF-12], the IC50 came to 6 µM at G119S AChE1 (setting [3]) and 54 µM on WT AChE1 (setting [4]). The “Mortality at 300 µM, Slab” value in data set [1] is 46%. For the same compound, the “Mortality at 300 µM, SR” value in data set [2] was found to be 88%.
Taken in the same sequence, the figures for `O=C1NC(=O)N(c2ccccc2)C(=O)C1=Cc1ccc(N2CCOCC2)o1` [PTF-62] were 345 µM, 197 µM, 0% and 0%.
Take `COc1ccccc1N1C(=O)NC(=O)C(=Cc2ccc(C)o2)C1=O` [PTF-11]: the IC50 at G119S AChE1 (setting [3]) turned out to be 1 µM; at WT AChE1 (setting [4]), 1.3 µM. Further, the “Mortality at 300 µM, Slab” value in data set [1] was determined as 0%. Moreover, the “Mortality at 300 µM, SR” value in data set [2] is given as 0%.
Regarding `CN1C(=O)C(=Cc2ccc(-c3ccc4c(c3)COC4=O)o2)C(=O)N(C)C1=O` [PTF-53], the IC50 on G119S AChE1 (setting [3]) was 5.6 µM; at WT AChE1 (setting [4]) it was 0.6 µM. In addition, the “Mortality at 300 µM, Slab” value in data set [1] is listed as 0%. In addition, the “Mortality at 300 µM, SR” value in data set [2] is reported as 0%.
`Cc1ccc(C=C2C(=O)NC(=O)N(c3ccc(F)cc3)C2=O)o1` [PTF-17]: the IC50 turned out to be 8 µM on G119S AChE1 (setting [3]) and 5 µM at WT AChE1 (setting [4]). For the same compound, the “Mortality at 300 µM, Slab” value in data set [1] is 15%. Further, the “Mortality at 300 µM, SR” value in data set [2] came out at 90%.
Turning to `COP(=O)(OC)OC=C(Cl)Cl` [Dichlorvos, reference compound], the figures for the IC50 against G119S AChE1 and on WT AChE1 were 2 µM and 0.45 µM, respectively. Also, the mortality at 300 µM worked out at 100% in data set [1] (Culex pipiens, 24 h, read-out: Mortality at 300 µM, Slab) and 100% in data set [2] (Culex pipiens, 24 h, read-out: Mortality at 300 µM, SR).
